# Assay results: US20080021056A1, “Fused, Tricyclic Sulfonamide Inhibitors of Gamma Secretase” (priority 2006, published 2008)
# Target: T1, gamma-secretase (Homo sapiens, UniProt P49768)
# T1 construct: partially purified extract of IMR-32 cell membranes as the gamma-secretase enzyme preparation; endogenous in cells; host or cells: IMR-32 cell membranes (partially purified extract)
# Experiment: Gamma-secretase APP enzyme assay
# Format: biochemical
# Conditions: cleavage of MBP-C125 Swe substrate at the Aβ40 site; partially purified extract of IMR-32 cell membranes; ELISA
# Source text: The gamma-secretase APP enzyme assay was designed to measure the specific proteolytic cleavage of an APP substrate (MBP-C125 Swe fusion protein) at the Aβ40 site. The assay used a partially purified extract of IMR-32 cell membranes as the gamma-secretase enzyme preparation and a recombinant fusion protein containing the C-terminal 125 amino acids of the Swedish variant of the APP (MBP-C125swe) as the substrate. This assay involved two steps beginning with the enzymatic reaction generating a cleavage product that was captured with an immobilized antibody specific for the neo-epitope Aβ40 site. The captured cleavage product was then detected in a sandwich ELISA assay with a biotinylated reporter antibody that is specific to Aβ (17-28). Streptavidin-linked alkaline phosphatase was then added that would generate a fluorescent signal proportional to the amount of cleavage product. This assay was used to discover small molecule inhibitors of gamma-secretase.
# Briefly, a 149 mg/ml solution of BIGCHAP detergent was made with water at 42° C. and then rotated for 30 minutes at the same temperatures This warmed solution of BigCHAPS (N,N-Bis(3-D-gluconamidopropyl)cholamide) detergent was used to dissolve Brain Extract Type-V (lipid containing a minimum of 40% phosphatidylethanolamine) from Signa (St. Louis, Mo.) to a concentration of 8 mg/ml. This solution containing BigCHAPS and lipid at 8 mg/ml is then diluted to 0.53 mg/ml lipid with a pre-warmed solution of Hepes and sodium chloride. This final solution containing Hepes buffer, sodium chloride, BigCHAPS detergent and lipid is used to create working solutions of both gamma-secretase (25 Units) and the MBP-C125 substrate (0.05 mg/ml).
# Gamma-secretase was then added to a 96-well micro-titre plate and then incubated with various concentrations of inhibitor for 30 minutes at 37° C. MBPC125 substrate was then added to initiate the reaction that would run for two hours at 37° C. The reaction was quenched with the addition of SDS to a final concentration of 0.1% and then 100 μl of the reaction mixture was transferred to a capture ELISA plate and incubated overnight at 4° C. Detection of the cleavage product was performed using a standard sandwich ELISA assay and quantified using a six point standard curve.
row,Compound,IC50 [nM]
1,"CC1c2cn[nH]c2-c2ccccc2N1S(=O)(=O)c1cccnc1 (stereo not shown) [4-methyl-5-(pyridin-3-ylsulfonyl)-4,5-dihydro-1H-pyrazolo[4,3-c]quinoline]",101 to 500
2,"CC(C)C1c2c[nH]nc2-c2ccccc2N1S(=O)(=O)c1ccc(Cl)cc1 (stereo not shown) [5-(4-chlorophenylsulfonyl)-4-isopropyl-4,5-dihydro-2H-pyrazolo[4,3-c]quinoline]",0.1 to 100
3,"CC1c2c[nH]nc2-c2cc(F)ccc2N1S(=O)(=O)c1ccc(Cl)cc1 (single isomer, unassigned) [5-[(4-chlorophenyl)sulfonyl]-8-fluoro-4-methyl-4,5-dihydro-2H-pyrazolo[4,3-c]quinoline]",0.1 to 100
4,"O=S(=O)(c1ccc(C(F)(F)F)cc1)N1c2cc(F)c(F)cc2-c2[nH]ncc2C1C1CC1 (racemic) [4-cyclopropyl-7,8-difluoro-5-(4-(trifluoromethyl)phenylsulfonyl)-4,5-dihydro-1H-pyrazolo[4,3-c]quinoline]",0.1 to 100
5,"CC1c2cn[nH]c2C2CCCCC2N1S(=O)(=O)c1ccc(Cl)cc1 (racemic) [5-(4-chlorophenylsulfonyl)-4-methyl-4,5,5a,6,7,8,9,9a-octahydro-1H-pyrazolo[4,3-c]quinoline]",0.1 to 100
6,"CC1c2c[nH]nc2-c2cc3c(cc2N1S(=O)(=O)c1ccc(Cl)cc1)OCO3 (stereo not shown) [5-(4-chlorophenylsulfonyl)-4-methyl-4,5-dihydro-2H-[1,3]dioxolo[4,5-g]pyrazolo[4,3-c]quinoline]",0.1 to 100
7,"O=S(=O)(c1ccc(C(F)(F)F)cc1)N1c2cccnc2-c2n[nH]cc2C1C1CC1 (stereo not shown) [4-cyclopropyl-5-(4-(trifluoromethyl)phenylsulfonyl)-4,5-dihydro-2H-pyrazolo[4,3-c][1,5]naphthyridine]",0.1 to 100
8,"O=S(=O)(c1ccc(F)cc1)N1c2cc(F)c(F)cc2-c2n[nH]cc2C1C1CC1 (single isomer, unassigned) [4-cyclopropyl-7,8-difluoro-5-(4-fluorophenylsulfonyl)-4,5-dihydro-2H-pyrazolo[4,3-c]quinoline]",0.1 to 100
9,"Cc1n[nH]c2c1CN(S(=O)(=O)c1ccc(Cl)cc1)c1ccccc1-2 [5-[(4-chlorophenyl)sulfonyl]-3-methyl-4,5-dihydro-1H-pyrazolo[4,3-c]quinoline]",1000 to 10000
10,"O=S(=O)(c1ccc(F)cc1)N1c2ncccc2-c2n[nH]cc2C1C(F)(F)F (stereo not shown) [5-(4-fluorophenylsulfonyl)-4-(trifluoromethyl)-4,5-dihydro-2H-pyrazolo[4,3-c][1,8]naphthyridine]",0.1 to 100
11,"O=S(=O)(c1ccc(OC(F)(F)F)cc1)N1c2ccc(F)cc2-c2[nH]ncc2[C@H]1C1CC1 [(R)-4-cyclopropyl-8-fluoro-5-(4-(trifluoromethoxy)phenylsulfonyl)-4,5-dihydro-1H-pyrazolo[4,3-c]quinoline]",0.1 to 100
12,"CCC1c2cn[nH]c2-c2cc(F)c(F)cc2N1S(=O)(=O)c1ccc(C(F)(F)F)cn1 (stereo not shown) [4-ethyl-7,8-difluoro-5-(5-(trifluoromethyl)pyridin-2-ylsulfonyl)-4,5-dihydro-1H-pyrazolo[4,3-c]quinoline]",0.1 to 100
13,"O=S(=O)(c1ncc(Cl)s1)N1c2cc(F)c(F)cc2-c2n[nH]cc2C1C1CC1 (stereo not shown) [5-chloro-2-(4-cyclopropyl-7,8-difluoro-1H-pyrazolo[4,3-c]quinolin-5(4H)-ylsulfonyl)thiazole]",0.1 to 100
14,"O=S(=O)(c1ccc(Cl)cc1)N1c2ccccc2-c2n[nH]cc2C1C(F)(F)F (stereo not shown) [5-(4-chlorophenylsulfonyl)-4-(trifluoromethyl)-4,5-dihydro-2H-pyrazolo[4,3-c]quinoline]",0.1 to 100
15,"O=S(=O)(c1ccc(C(F)(F)F)cc1)N1c2ncccc2-c2n[nH]cc2C1C1CC1 (stereo not shown) [4-cyclopropyl-5-(4-(trifluoromethyl)phenylsulfonyl)-4,5-dihydro-2H-pyrazolo[4,3-c][1,8]naphythyridine]",0.1 to 100
16,"CC1c2c[nH]nc2-c2cccnc2N1S(=O)(=O)c1ccc(Cl)cc1 (stereo not shown) [5-(4-chlorophenylsulfonyl)-4-methyl-4,5-dihydro-2H-pyrazolo[4,3-c][1,8]naphthyridine]",0.1 to 100
17,"O=S(=O)(c1ccc(Cl)cc1)N1Cc2cn[nH]c2-n2ccnc21 [5-(4-chlorophenylsulfonyl)-4,5-dihydro-1H-imidazo[1,2-a]pyrazolo[4,3-e]pyrimidine]",101 to 500
18,"CC1c2c[nH]nc2-c2cc(F)c(F)cc2N1S(=O)(=O)c1cccs1 (stereo not shown) [7,8-difluoro-4-methyl-5-(thiophen-2-ylsulfonyl)-4,5-dihydro-2H-pyrazolo[4,3-c]quinoline]",0.1 to 100
19,"CC1c2c[nH]nc2-c2ccccc2N1S(=O)(=O)c1ccccn1 (stereo not shown) [4-methyl-5-(pyridin-2-ylsulfonyl)-4,5-dihydro-2H-pyrazolo[4,3-c]quinoline]",101 to 500
20,"O=S(=O)(c1ccc(C(F)(F)F)nc1)N1c2ccc(C(F)(F)F)cc2-c2[nH]ncc2[C@H]1C1CC1 [(R)-4-cyclopropyl-8-(trifluoromethyl)-5-(6-(trifluoromethyl)pyridin-3-ylsulfonyl)-4,5-dihydro-1H-pyrazolo[4,3-c]quinoline]",0.1 to 100
21,"CC1c2c[nH]nc2-c2ccccc2N1S(=O)(=O)c1ccc(Cl)cc1 (racemic) [5-[(4-chlorophenyl)sulfonyl]-4-methyl-4,5-dihydro-2H-pyrazolo[4,3-c]quinoline]",0.1 to 100
22,"CC(C)C1c2c[nH]nc2-c2cc(F)c(F)cc2N1S(=O)(=O)c1ccc(C(F)(F)F)cc1 (stereo not shown) [7,8-difluoro-4-isopropyl-5-(4-(trifluoromethyl)phenylsulfonyl)-4,5-dihydro-2H-pyrazolo[4,3-c]quinoline]",0.1 to 100
23,"CC1c2c[nH]nc2-c2cc(Cl)sc2N1S(=O)(=O)c1ccc(C(F)(F)F)cc1 (stereo not shown) [7-chloro-4-methyl-5-(4-(trifluoromethyl)phenylsulfonyl)-4,5-dihydro-1H-pyrazolo[3,4-d]thieno[2,3-b]pyridine]",0.1 to 100
24,"O=S(=O)(c1ccc(C(F)(F)F)nc1)N1c2ccccc2-c2[nH]ncc2C1C1CC1 (stereo not shown) [4-cyclopropyl-5-(6-(trifluoromethyl)pyridin-3-ylsulfonyl)-4,5-dihydro-1H-pyrazolo[4,3-c]quinoline]",0.1 to 100
25,"CC1c2cn[nH]c2-c2ccc(O)cc2N1S(=O)(=O)c1ccc(Cl)cc1 (stereo not shown) [5-(4-chlorophenylsulfonyl)-4-methyl-4,5-dihydro-1H-pyrazolo[4,3-c]quinolin-7-ol]",0.1 to 100

# Same assay, conditions: cleavage of MBP-C125 Swe substrate at the Aβ40 site; partially purified extract of IMR-32 cell membranes; ELISA; enantiomer A
row,Compound,IC50 [nM]
1,"O=S(=O)(c1ccc(C(F)(F)F)nc1)N1c2ccc(F)cc2-c2n[nH]cc2C1C1CC1 (single isomer, unassigned) [4-cyclopropyl-8-fluoro-5-(6-(trifluoromethyl)pyridin-3-ylsulfonyl)-4,5-dihydro-2H-pyrazolo[4,3-c]quinoline]",0.1 to 100
2,"O=S(=O)(c1ccc(C(F)(F)F)cn1)N1c2ccc(F)cc2-c2[nH]ncc2C1C1CC1 (single isomer, unassigned) [4-cyclopropyl-8-fluoro-5-(5-(trifluoromethyl)pyridin-2-ylsulfonyl)-4,5-dihydro-1H-pyrazolo[4,3-c]quinoline]",101 to 500
3,"CC1c2cn[nH]c2C2CCCCC2N1S(=O)(=O)c1ccc(Cl)cc1 (single isomer, unassigned) [5-(4-chlorophenylsulfonyl)-4-methyl-4,5,5a,6,7,8,9,9a-octahydro-1H-pyrazolo[4,3-c]quinoline]",101 to 500

# Same assay, conditions: cleavage of MBP-C125 Swe substrate at the Aβ40 site; partially purified extract of IMR-32 cell membranes; ELISA; enantiomer B
row,Compound,IC50 [nM]
1,"O=S(=O)(c1ccc(C(F)(F)F)nc1)N1c2ccc(F)cc2-c2n[nH]cc2C1C1CC1 (single isomer, unassigned) [4-cyclopropyl-8-fluoro-5-(6-(trifluoromethyl)pyridin-3-ylsulfonyl)-4,5-dihydro-2H-pyrazolo[4,3-c]quinoline]",0.1 to 100
2,"O=S(=O)(c1ccc(C(F)(F)F)cn1)N1c2ccc(F)cc2-c2[nH]ncc2C1C1CC1 (single isomer, unassigned) [4-cyclopropyl-8-fluoro-5-(5-(trifluoromethyl)pyridin-2-ylsulfonyl)-4,5-dihydro-1H-pyrazolo[4,3-c]quinoline]",0.1 to 100
3,"CC1c2cn[nH]c2C2CCCCC2N1S(=O)(=O)c1ccc(Cl)cc1 (single isomer, unassigned) [5-(4-chlorophenylsulfonyl)-4-methyl-4,5,5a,6,7,8,9,9a-octahydro-1H-pyrazolo[4,3-c]quinoline]",0.1 to 100
